{"source": "patent US20120016019A1", "about": "“PHARMACEUTICAL COMPOSITION FOR TREATING OR PREVENTING CANCER” (priority 2010, published 2012)", "key": {"[1]": {"test_system": "C-6", "method": "(§1) Cancer cell lines HCC 1419, MCF-7, MDA-MB-468, SKBR3, PC3, HT1299, Saos-2, C-6, AsPc, MDA-MB-231, RKO, HeLa and TT, and normal cell lines HME 50 HT, BJ and CCD-1074sk were tested for changes in metabolism (XTT assay) and cell death (cell counts).\n(§2) Cells were plated into 48-well Corning CellBind™ plates at densities of 20,000 cells for normal cells and 10,000˜20,000 cells for cancer cells. 24 to 48 h after plating, cells were treated with the composition according to the invention at concentrations of 4.5e-2M. The first time point treated with the composition of the invention is 0 h. At 3 days after the first treatment with the composition of the invention, medium was changed and the composition of the invention at the same concentrations were added to the cultured cells.\n(§3) The XTT assay is an accepted analysis technique for viability and cytotoxicity of anticancer drugs or other pharmaceutical compositions. Cells were seeded in a 96-well tissue culture plate at a density of 10,000 cells for normal cells and 5,000 cells for cancer cells. After incubation period, the formazan dye formed was quantitated using an ELISA reader. The optimal wavelength used in experiments was 500 nm, and it was measured at 0 h, 12 h, 24 h, 48 h, 4 d and 7 d, respectively. The obtained values were generated using the software SoftMax Pro 4.8.\n(§4) The cell viability was calculated according to the manufacturer's instructions as follows (the term “blank” means XTT in medium only):\n(§5) Cellular cytotoxicity was calculated according to the manufacturer's instructions as follows: […]"}, "[2]": {"test_system": "SKBR3", "details": "for The absorbance, Mean value / The absorbance, group - Blank / The absorbance: SKBR3, XTT 500 nm; for The absorbance: single wells", "method": "as §1, §2, §3, §4, §5"}}, "note": "Where “and” joins values, the source holds several entries; their conditions need not be identical. Identical values can stand only once. Like-named read-outs stand apart in the source and are kept apart here."}
{"smiles": "CC(=O)O[C@H]1C(=O)[C@@]2(C)[C@H]([C@H](OC(=O)c3ccccc3)[C@]3(O)C[C@H](OC(=O)[C@H](O)[C@@H](NC(=O)c4ccccc4)c4ccccc4)C(C)=C1C3(C)C)[C@]1(OC(C)=O)CO[C@@H]1C[C@@H]2O", "note": "[Taxol]", "values": [{"measurement": "The absorbance, Mean value", "setting": "[1]; C-6, 1st week (LC50), 4 d", "result": 2.7275}, {"measurement": "The absorbance, group - Blank", "setting": "[1]; C-6, 1st week (LC50), 4 d", "result": 2.2052}, {"measurement": "The absorbance", "setting": "[1]; C-6, 1st week (LC50), 7 d", "result": "2.334 and 2.3441 and 2.3017"}, {"measurement": "The absorbance, Mean value", "setting": "[1]; C-6, 1st week (LC50), 7 d", "result": 2.3266}, {"measurement": "The absorbance, group - Blank", "setting": "[1]; C-6, 1st week (LC50), 7 d", "result": 1.8043}, {"measurement": "The absorbance", "setting": "[1]; C-6, 2nd week (recovery), 0 h", "result": "2.7171 and 2.4409 and 2.6926"}, {"measurement": "The absorbance, Mean value", "setting": "[1]; C-6, 2nd week (recovery), 0 h", "result": 2.6169}, {"measurement": "The absorbance, group - Blank", "setting": "[1]; C-6, 2nd week (recovery), 0 h", "result": 2.0945}, {"measurement": "The absorbance", "setting": "[1]; C-6, 2nd week (recovery), 24 h", "result": "1.9908 and 2.3106 and 2.2634"}, {"measurement": "The absorbance, Mean value", "setting": "[1]; C-6, 2nd week (recovery), 24 h", "result": 2.1883}, {"measurement": "The absorbance, group - Blank", "setting": "[1]; C-6, 2nd week (recovery), 24 h", "result": 1.6659}, {"measurement": "The absorbance", "setting": "[1]; C-6, 2nd week (recovery), 48 h", "result": "3.111 and 2.4572 and 2.7053"}, {"measurement": "The absorbance, Mean value", "setting": "[1]; C-6, 2nd week (recovery), 48 h", "result": 2.7578}, {"measurement": "The absorbance, group - Blank", "setting": "[1]; C-6, 2nd week (recovery), 48 h", "result": 2.2355}, {"measurement": "The absorbance", "setting": "[1]; C-6, 2nd week (recovery), 4 d", "result": "2.6888 and 2.7862 and 2.8075"}, {"measurement": "The absorbance, Mean value", "setting": "[1]; C-6, 2nd week (recovery), 4 d", "result": 2.7608}, {"measurement": "The absorbance, group - Blank", "setting": "[1]; C-6, 2nd week (recovery), 4 d", "result": 2.2385}, {"measurement": "The viability", "setting": "[1]; C-6, 2nd week (recovery), 4 d", "result": 0.8937}, {"measurement": "The absorbance", "setting": "[1]; C-6, 2nd week (recovery), 7 d", "result": "2.4639 and 2.1497 and 2.4909"}, {"measurement": "The absorbance, Mean value", "setting": "[1]; C-6, 2nd week (recovery), 7 d", "result": 2.3682}, {"measurement": "The absorbance, group - Blank", "setting": "[1]; C-6, 2nd week (recovery), 7 d", "result": 1.8458}, {"measurement": "The cytotoxicity", "setting": "[1]; rat, 12 h, 220 nM", "result": 0.1898}, {"measurement": "The viability", "setting": "[1]; rat, 12 h, 220 nM", "result": 0.8102}, {"measurement": "The viability", "setting": "[1]; rat, 4 d, 220 nM", "result": 0.8804}, {"measurement": "The absorbance, Mean value", "setting": "[2]; 1st week (LC50), 0 h", "result": 0.3968}, {"measurement": "The absorbance, group - Blank", "setting": "[2]; 1st week (LC50), 0 h", "result": 0.2164}, {"measurement": "The absorbance", "setting": "[2]; 1st week (LC50), 0 h", "result": "0.4034 and 0.3885 and 0.3985"}, {"measurement": "The absorbance, Mean value", "setting": "[2]; 1st week (LC50), 12 h", "result": 1.5205}, {"measurement": "The absorbance, group - Blank", "setting": "[2]; 1st week (LC50), 12 h", "result": 1.3402}, {"measurement": "The absorbance, group - Blank", "setting": "[2]; 1st week (LC50), 24 h", "result": 1.8347}, {"measurement": "The absorbance, Mean value", "setting": "[2]; 1st week (LC50), 48 h", "result": 1.6721}, {"measurement": "The absorbance, group - Blank", "setting": "[2]; 1st week (LC50), 48 h", "result": 1.4917}, {"measurement": "The absorbance", "setting": "[2]; 1st week (LC50), 48 h", "result": "1.6738 and 1.629 and 1.7134"}, {"measurement": "The absorbance, Mean value", "setting": "[2]; 1st week (LC50), 4 d", "result": 1.1935}, {"measurement": "The absorbance", "setting": "[2]; 1st week (LC50), 4 d", "result": "1.2586 and 1.1724 and 1.1494"}, {"measurement": "The absorbance, Mean value", "setting": "[2]; 1st week (LC50), 7 d", "result": 1.0281}, {"measurement": "The absorbance, group - Blank", "setting": "[2]; 1st week (LC50), 7 d", "result": 0.8478}, {"measurement": "The absorbance", "setting": "[2]; 1st week (LC50), 7 d", "result": "0.9379 and 0.9708 and 1.1757"}, {"measurement": "The absorbance, Mean value", "setting": "[2]; 2nd week (recovery), 0 h", "result": 1.0435}, {"measurement": "The absorbance, group - Blank", "setting": "[2]; 2nd week (recovery), 0 h", "result": 0.8631}, {"measurement": "The absorbance", "setting": "[2]; 2nd week (recovery), 0 h", "result": "1.0568 and 1.0836 and 0.99"}, {"measurement": "The absorbance, Mean value", "setting": "[2]; 2nd week (recovery), 24 h", "result": 1.1704}, {"measurement": "The absorbance, group - Blank", "setting": "[2]; 2nd week (recovery), 24 h", "result": 0.9900}, {"measurement": "The absorbance", "setting": "[2]; 2nd week (recovery), 24 h", "result": "1.1654 and 1.3673 and 0.9784"}, {"measurement": "The absorbance, Mean value", "setting": "[2]; 2nd week (recovery), 48 h", "result": 1.0440}, {"measurement": "The absorbance, group - Blank", "setting": "[2]; 2nd week (recovery), 48 h", "result": 0.8636}, {"measurement": "The absorbance", "setting": "[2]; 2nd week (recovery), 48 h", "result": "0.9057 and 0.8251 and 1.4012"}, {"measurement": "The absorbance, Mean value", "setting": "[2]; 2nd week (recovery), 4 d", "result": 1.2517}, {"measurement": "The absorbance, group - Blank", "setting": "[2]; 2nd week (recovery), 4 d", "result": 1.0713}, {"measurement": "The absorbance", "setting": "[2]; 2nd week (recovery), 4 d", "result": "1.252 and 1.6151 and 0.888"}, {"measurement": "The absorbance, Mean value", "setting": "[2]; 2nd week (recovery), 7 d", "result": 0.9393}, {"measurement": "The absorbance, group - Blank", "setting": "[2]; 2nd week (recovery), 7 d", "result": 0.7590}, {"measurement": "The absorbance", "setting": "[2]; 2nd week (recovery), 7 d", "result": "0.7048 and 1.1412 and 0.972"}, {"measurement": "The cytotoxicity", "setting": "[2]; human, 0 h, 220 nM", "result": "−1.4298"}, {"measurement": "The viability", "setting": "[2]; human, 12 h, 220 nM", "result": 0.7165}, {"measurement": "The cytotoxicity", "setting": "[2]; human, 24 h, 220 nM", "result": 0.4771}, {"measurement": "The cytotoxicity", "setting": "[2]; human, 48 h, 220 nM", "result": 0.6010}]}
